Experiments:
[1] = tested on: eNOS; experiment: nitrite (NO2-) detection, VEGF-stimulated EC; assay type: cell-based, human
Protocol: Nitrite was Detected as follows: Quantitative analysis of nitrite (NO2^−) was used as an index of NO production. Briefly, aliquots of the medium bathing intact EC were collected at the time intervals corresponding to either 0-2 or 5-30 min of VEGF exposure. For the latter period, the medium bathing the VEGF-stimulated cells for the first 5 min was discarded and replaced by fresh VEGF-containing medium for the next 25 min. […] Data are normalized for the amount of protein in the dish, and are presented for convenience as mean+/−S.E. Statistical analyses were made using Student's t test or one-way ANOVA where appropriate.

[2] = tested on: hsp90/eNOS interaction; experiment: hsp90/eNOS co-immunoprecipitation, VEGF-exposed HUVEC; assay type: cell-based, human
[3] = tested on: Akt/eNOS interaction; experiment: Akt/eNOS co-immunoprecipitation, VEGF-exposed HUVEC; assay type: cell-based, human
Protocol: Immunoprecipitation, Immunoblotting, and Kinase Assay was performed as follows: EC were homogenized in a buffer containing phosphatase and protease inhibitors (Garcia-[…] ., et al. (1998) Nature 392, 821-824), and processed for immunoblotting or immunoprecipitation in a octyl glucoside-containing buffer as described previously (Feron, O., et al. (1998) J. Biol. Chem. 273, 3125-3128). Caveolin, eNOS, and hsp90 antibodies were from BD Transduction Labs, Akt and phospho-Akt antibodies from BD PharMingen, CaM antibody from Santa Cruz, and phospho-eNOS antibody from NEB Cell Signaling Technology. Akt activity was measured using a non-radioactive immunoprecipitation kinase assay kit (NEB Cell Signaling Technology). It was further analyzed whether eNOS and Akt interact together in eNOS/Akt co-immunoprecipitation experiments. […] In an attempt to appreciate the proportion of eNOS involved in the geldanamycin-sensitive recruitment of Akt, the reverse co-immunoprecipitation assay was further developed: hsp90 and Akt antibodies were used to immunoprecipitate eNOS (which was detected by immunoblotting) and the supernatants of these immunoprecipitations were checked for residual eNOS presence; for this purpose, the immunoprecipitated supernatants were submitted to a second immunoprecipitation with eNOS antibodies.

[4] = tested on: caveolin-eNOS complex; experiment: caveolin/eNOS co-immunoprecipitation, VEGF-exposed HUVEC; assay type: cell-based, human; conditions: for effect on VEGF-induced caveolin/eNOS dissociation: geldanamycin, BAPTA
Protocol: (1998) J. Biol. Chem. 273, 30249-30254) and plated at 5×10^5 cells/ml. […] Immunoprecipitation, Immunoblotting, and Kinase Assay was performed as follows: EC were homogenized in a buffer containing phosphatase and protease inhibitors (Garcia-[…]., et al. (1998) Nature 392, 821-824), and processed for immunoblotting or immunoprecipitation in a octyl glucoside-containing buffer as described previously (Feron, O., et al. (1998) J. Biol. Chem. 273, 3125-3128). Caveolin, eNOS, and hsp90 antibodies were from BD Transduction Labs, Akt and phospho-Akt antibodies from BD PharMingen, CaM antibody from Santa Cruz, and phospho-eNOS antibody from NEB Cell Signaling Technology. Akt activity was measured using a non-radioactive immunoprecipitation kinase assay kit (NEB Cell Signaling Technology). […] First, extracts were immunoprecipitated with caveolin antibodies and the immuno-precipitation immunoblotted with eNOS antibodies (FIG. 10A, top). […] Experiments were then performed to determine the time course of hsp90 interaction with eNOS.

[5] = tested on: phospho-Ser1177-eNOS; experiment: phospho-Ser1177-eNOS immunoblot, VEGF-exposed HUVEC; assay type: cell-based, human
[6] = tested on: CaM/eNOS interaction; experiment: CaM/eNOS co-immunoprecipitation, EC; assay type: cell-based, human
Protocol: Immunoprecipitation, Immunoblotting, and Kinase Assay was performed as follows: EC were homogenized in a buffer containing phosphatase and protease inhibitors (Garcia-Cardena, G., et al. (1998) Nature 392, 821-824), and processed for immunoblotting or immunoprecipitation in a octyl glucoside-containing buffer as described previously (Feron, O., et al. (1998) J. Biol. Chem. 273, 3125-3128). Caveolin, eNOS, and hsp90 antibodies were from BD Transduction Labs, Akt and phospho-Akt antibodies from BD PharMingen, CaM antibody from Santa Cruz, and phospho-eNOS antibody from NEB Cell Signaling Technology. Akt activity was measured using a non-radioactive immunoprecipitation kinase assay kit (NEB Cell Signaling Technology).
In order to further dissect the calcium dependence of the Akt-mediated phosphorylation of eNOS, the eNOS/CaM association was examined after 2 and 30 min VEGF exposure, i.e. at the maximum of the calcium transient and after the return of [Ca^2+]i to its basal level, respectively.

[7] = tested on: [Ca^2+]i; experiment: Fura-2 measurement of [Ca2+]i in VEGF-exposed EC; assay type: cell-based, human
Protocol: Alternating wavelength excitation of 340 and 380 nm was provided by a motorized filter wheel. The image pairs monitored by the Ionoptix Myocam camera were processed by the IonWizard software (Ionoptix, Milton, Mass.) and are presented as the fluorescence ratio (340/380 nm), a direct index to the [Ca^2+]i. In some experiments, Fura-2-loaded cells were preincubated with the intracellular calcium chelator BAPTA/AM (20 μM).

[8] = tested on: phospho-Ser473-Akt; experiment: phospho-Ser473-Akt immunoblot, VEGF-exposed HUVEC; assay type: cell-based, human
[9] = tested on: phospho-Ser473-Akt; experiment: phospho-Ser473-Akt immunoblot, statin-exposed HUVECs; conditions: for (basal) level of Akt phosphorylation: phosphatase inhibitor
[10] = tested on: eNOS/hsp90 interaction; experiment: eNOS/hsp90 co-immunoprecipitation, statin-exposed HUVECs; conditions: mevalonate 1 mmol/L, BAPTA-AM 20 μmol/L, CSD peptide loading
[11] = tested on: phospho-Ser1177-eNOS; experiment: phospho-Ser1177-eNOS immunoblot, statin-exposed HUVECs
[12] = tested on: HUVECs; experiment: angiogenesis assay on Matrigel, HUVECs; assay type: cell-based, human; conditions: HUVECs on Matrigel, atorvastatin
Protocol: (§1) Tube formation was observed using an inverted phase-contrast microscope (Zeiss Axiovert 25), and images were captured with a videographic system (Pixera Pro). The tube formation index was determined by measuring the length of tubes in random fields from each well using the Image J program. Statistical analyses were made using the Student t test or one-way ANOVA where appropriate.
Transfection and peptide loading was performed by reversible permeabilization: HUVECs were transfected with the hsp90 cDNA (a gift from Dr W. C. Sessa, Yale University, New Haven, Conn.) using Lipofectamine (Invitrogen) according to the manufacturer's protocol; an irrelevant plasmid encoding β-galactosidase was used as a control to obtain identical amounts of transfected DNA in each condition. HUVECs were also reversibly permeabilized, as previously reported (Feron et al. J Biol. Chem. 1998; 273:30249-30254), to introduce synthetic peptides derived from the caveolin scaffolding domain (CSD).

[13] = tested on: phospho-Akt/eNOS interaction; experiment: eNOS/phospho-Akt co-immunoprecipitation, statin-exposed HUVECs; conditions: co-IP
[14] = tested on: endothelial cells; experiment: sandwich Matrigel model of endothelial tube formation; assay type: cell-based
Protocol: Indeed, while endothelial cells culture leads to pavimentous organization when plated on dishes (FIG. 1A), endothelial cells progressively form tubes when cultured within gels of collagen, fibrin or Matrigel®. Accordingly, in the “3-D model”, endothelial cells are mixed to the matrix before gelification and tube-like structures are obtained after 48-72 hours (FIG. 1B); this model, however, reduces the efficiency of transfection. In the “sandwich model”, cells are first cultured to confluence on a first layer of matrix, and are then covered by a second matrix layer; cells are easily transfected in the interval preceding the addition of the upper layer. The latter technique allows the formation of endothelial tubes in 3-6 hours; the tube structures are mature 12 hours after induction (FIG. 1C) and then start to regress.
Of note, when endothelial cells were transfected with an irrelevant construct (β-galactosidase-encoding), no change in the rate and extent of tube formation was observed.

[15] = tested on: wild-type eNOS; experiment: nitrite production in transfected COS cells, wild-type eNOS; assay type: cell-based
[16] = tested on: AoECs; experiment: aortic ring culture in Matrigel, AoEC network organization; assay type: cell-based, rat; conditions: L-NAME added at the time of serum deprivation
Protocol: Cultures of AoECs and CoMECs organized in a network were then challenged at day 5 by incubation under serum-free conditions for 24 to 48 hours with or without some of the drugs mentioned above. […] Tube formation was observed using an inverted phase-contrast microscope (Zeiss Axiovert 25), and images were captured with a videographic system (Pixera Pro). The tube formation index was determined by measuring the length of tubes in random fields from each well using the Image J program. Statistical analyses were made using the Student t test or one-way ANOVA where appropriate.

[17] = tested on: CMECs; experiment: angiogenesis assay on Matrigel, CMECs; assay type: cell-based, Mouse; conditions: CMECs; L-NAME 5 mmol/L coincubation; geldanamycin 1 μg/mL 30-minute preincubation
Protocol: as §1

[18] = nitrite production normalized per min
[19] = eNOS antibodies, geldanamycin 1 μg/ml 30 min, BAPTA

VEGF
rate of NO2- produced in the first 5-min interval versus the following 30 min ([1]; after VEGF stimulation, preliminary experiments): 2-3 fold
absolute amount of NO2^− produced in the 5-30-min period versus the first 2-min VEGF exposure ([1]; control conditions): 5.5 fold
amounts of NO2^− in the 55-60-min interval ([1]; following VEGF stimulation): below the detection level
proportion of eNOS pool engaged in hsp90 interaction ([2]; 5 min VEGF, reverse immunoprecipitation with hsp90 antibodies): around half of the total eNOS pool
cell exposure needed for hsp90 co-immunoprecipitation with eNOS ([2]; VEGF 50 ng/ml): ≥ 2 min
proportion of eNOS pool engaged in Akt interaction ([3]; 5 min VEGF, reverse immunoprecipitation with Akt antibodies): around half of the total eNOS pool
time from which Akt association to eNOS could be detected ([3]; VEGF stimulation): ≥ 2 min
time to complete dissociation of eNOS from caveolin ([4]; VEGF 50 ng/ml): ≤ 2 min
time for which dissociation was maintained ([4]; in the presence of VEGF): at least 30 min
time to maximal eNOS phosphorylation ([5]; VEGF exposure): at least 5 min
persistence of the CaM/eNOS association ([6]; VEGF): at least 30 min
time at which CaM could be detected in the eNOS immune complex ([6]; after VEGF stimulation): 2 min
time to peak of calcium transient ([7]; VEGF exposure): 1 min
time at which Akt phosphorylation was already observed ([8]; VEGF exposure): 30 s

calyculin
(basal) level of Akt phosphorylation [9]: stimulated Akt phosphorylation

CC(=O)OCOC(=O)CN(CC(=O)OCOC(C)=O)c1ccccc1OCCOc1ccccc1N(CC(=O)OCOC(C)=O)CC(=O)OCOC(C)=O [BAPTA-AM]
level of eNOS activation for the 5-30-min period ([1]; BAPTA added after the early phase (at t=5 min), versus vehicle): no significant reduction
effect on early VEGF-induced eNOS activation (0-2 min) [1, 18]: sufficient to block
effect on late VEGF-induced eNOS activation (5-30 min) [1, 18]: sufficient to block
effect on VEGF-induced hsp90/eNOS co-immunoprecipitation [2, 19]: completely prevented
effect on VEGF-induced Akt/eNOS co-immunoprecipitation [3, 19]: prevented
effect on VEGF-induced caveolin/eNOS dissociation [4]: complete inhibition
effect on VEGF-induced eNOS phosphorylation ([5]; LY294002 10 μM 1-h preincubation, geldanamycin 1 μg/ml, BAPTA-AM 20 μM): prevented
effect on VEGF-induced CaM/eNOS interaction ([6]; BAPTA pretreatment): completely abrogated
effect on VEGF-evoked calcium transient ([7]; 20 μM BAPTA-AM): completely abrogated
effect on the basal level of [Ca^2+]i ([7]; 20 μM BAPTA-AM): no effect
effect on atorvastatin-stimulated eNOS/hsp90 interaction [10]: abrogated
effect on statin-induced phosphorylation of eNOS ([11]; atorvastatin 1 μmol/L, LY294002 10 μmol/L, geldanamycin 1 μg/mL, mevalonate 1 mmol/L, BAPTA-AM 20 μmol/L, CSD peptide loading): abrogated
effect on VEGF-induced Akt phosphorylation ([8]; LY294002 10 μM 1-h preincubation, geldanamycin 1 μg/ml, BAPTA): not altered
effect on statin-induced phosphorylation of Akt ([9]; CSD peptide loading, BAPTA-AM added 30 minutes before statin): blocked

C=C1[C@@H](O)[C@@H]2O[C@]3(CC[C@H](/C=C/[C@@H](C)[C@@H]4CC(C)=C[C@@]5(O[C@H](C[C@@](C)(O)C(=O)O)CC[C@H]5O)O4)O3)CC[C@H]2O[C@@H]1[C@@H](O)C[C@H](C)[C@H]1O[C@@]2(CCCCO2)CC[C@H]1C [okadaic acid]
effect on statin-induced tube formation [12]: stimulated basal and statin-induced tube formation
increase of statin-induced phosphorylation of eNOS in the presence of okadaic acid ([11]; okadaic acid versus okadaic acid+statin, 100 nmol/L): ~3 fold
(basal) level of Akt phosphorylation [9]: dramatically increased
effect on phospho-Akt/eNOS interaction upon statin [13]: promoted

CC(=O)N[C@@H](C(=O)O)C(C)(C)SN=O (racemic) [SNAP]
effect on the anti-angiogenic effect observed in caveolin-overexpressing cells ([14]; caveolin-overexpressing cells): correct this anti-angiogenic effect
endothelial tube formation ([14]; non-transfected cells): accelerated the endothelial tube formation

CNc1ccc2oc(C[C@H]3O[C@@]4(CC[C@H]3C)O[C@H]([C@H](C)C(=O)c3ccc[nH]3)[C@H](C)C[C@H]4C)nc2c1C(=O)O [A23187]
early NO2^− production (0-2 min) relative to the level obtained with VEGF ([1]; 1 μM A23187 pulse for 2 min): ~3 fold
long-term NO2^− production compared with VEGF-exposed cells ([1]; 1 μM A23187 pulse for 2 min, then Ca^2+-free medium): significantly lower
eNOS/CaM association ([6]; short exposure to A23187): led to the early association between eNOS and CaM

COC1=C2C[C@@H](C)C[C@H](OC)[C@H](O)[C@@H](C)/C=C(\C)[C@H](OC(N)=O)[C@@H](OC)/C=C\C=C(/C)C(=O)NC(=CC1=O)C2=O [geldanamycin]
effect on early VEGF-induced eNOS activation (0-2 min) [1, 18]: no significant effect
part of the recombinant hsp90- and hsp90/Akt-mediated increase in NO production blocked ([15]; COS cells, preincubation): 70-95%
part of the Akt-dependent increase in nitrite production blocked ([15]; WT-eNOS COS cells pretreated for 30 min): around 70%
effect on VEGF-induced caveolin/eNOS dissociation [4]: no significant effect

COC(=O)[C@@H](N)CCCNC(=N)N[N+](=O)[O-] [L-NAME, N^G-nitro-L-arginine methyl ester]
effect on statin stabilisation of the network [16]: abrogated the beneficial effects of statin pretreatment
effect on atorvastatin-induced tube formation [17]: almost completely blocked
